The values that follow come from PMC9317016, “Oleocanthal Attenuates Metastatic Castration-Resistant Prostate Cancer Progression and Recurrence by Targeting SMYD2” (Cancers, 2022).

In this assay the target is SMYD2 (Homo sapiens, UniProt Q9NRG4). The assay is described as follows: scintillation proximity methyltransferase assay, 3H-methyl incorporation into p53 peptide ([…]), single […] dose. Type of assay: biochemical. In general terms: Scintillation proximity formats need no separation of bound from free tracer.
Chain of SMYD2 (Q9NRG4 whole entry): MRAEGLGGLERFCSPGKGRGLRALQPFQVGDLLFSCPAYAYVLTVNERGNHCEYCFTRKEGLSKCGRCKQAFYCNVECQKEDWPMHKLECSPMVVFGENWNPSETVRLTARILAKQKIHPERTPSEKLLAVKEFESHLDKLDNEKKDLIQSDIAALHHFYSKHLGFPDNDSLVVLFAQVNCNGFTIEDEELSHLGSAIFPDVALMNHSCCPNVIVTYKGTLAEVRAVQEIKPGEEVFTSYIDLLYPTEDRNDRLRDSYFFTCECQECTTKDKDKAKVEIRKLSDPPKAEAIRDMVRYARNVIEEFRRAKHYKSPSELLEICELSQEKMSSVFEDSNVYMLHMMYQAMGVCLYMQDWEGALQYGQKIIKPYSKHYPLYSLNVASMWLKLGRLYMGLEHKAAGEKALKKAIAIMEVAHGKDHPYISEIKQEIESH

Regarding `C/C=C(/C=O)[C@@H](CC=O)CC(=O)OCCc1ccc(O)cc1` [OC, S-(-)-oleocanthal], 10 µM produced 90.8% inhibition.

In general, inhibition refers to the drop in the measured response relative to a control, in per cent. The low end stands for a weak effect, the high end for a strong effect.
